Here are results for eleven molecules from ChEMBL document CHEMBL1121741, “Acidic epinephrine analogues derived from 1H, 3H-2,1,3-benzothiadiazole 2,2-dioxide and from trifluoromethanesulfonanilide. A new synthesis of 1H,3H-2,1,3-benzothiadiazole 2,2-dioxide” (J Med Chem, 1981).

The structures appear in SMILES notation.

What is called pKa is the negative logarithm of the acid dissociation constant. Low values mean a group that gives up its proton readily, high ones a group that holds its proton tightly. As usually defined, the logP is the decadic logarithm of the partition coefficient of the neutral form, usually between octanol and water. Read a high logP as a more lipophilic compound.

A short description of data set [1]: Acidity determined spectrometrically. It counts as ADME.
The nature of data set [2]: Acidity of compound was determined. It counts as ADME.
Data set [3] is described as follows: Partition coefficient (logP). It counts as physicochemical. The conditions noted are these: octanol/water.

As to `CC(C)NCC(O)c1cccc(NS(=O)(=O)C(F)(F)F)c1` (stereo unspecified), the pKa in data set [1] was 3.63. On the same count and under the same terms, with `CC(C)NCC(O)c1ccc2c(c1)NS(=O)(=O)N2` (stereo unspecified) the figure was 4.68. Take `O=S1(=O)Nc2ccccc2N1`: the pKa in data set [2] came out at 5.26. In data set [3], this molecule had a lipophilicity (logP) of 1.12. The molecule `O=S(=O)(CF)Nc1ccccc1` gave a pKa in data set [2] of 7.53. Further, the log partition coefficient (logP) in data set [3] came to 1.35. Taken in the same sequence, the figures for `CS(=O)(=O)Nc1ccccc1` were 8.85 and 0.95.

Regarding `CC(C)(C)NCC(O)c1ccc2c(c1)NS(=O)(=O)N2` (stereo unspecified), the pKa in data set [1] was determined as 4.7.

For the molecule `CNCC(O)c1ccc2c(c1)NS(=O)(=O)N2` (stereo unspecified), the pKa in data set [1] was found to be 4.67. In data set [1], `NCC(O)c1ccc2c(c1)NS(=O)(=O)N2` (stereo unspecified) yielded a pKa of 4.68. In the case of `O=S(=O)(Nc1ccccc1)C(F)(F)F`, the pKa in data set [2] is 4.45. For the same molecule, the logP in data set [3] amounted to 3.03. For `Oc1cccc(O)c1` [RESORCINOL], the pKa in data set [2] was 9.5. This molecule registered a lipophilicity (logP) in data set [3] of 0.85. The molecule `CC(C)NCC(O)c1ccc(NS(=O)(=O)C(F)(F)F)cc1` (stereo unspecified) returned a pKa in data set [1] of 3.65.
